Where no end group is shown, it is not given here.
Legend:
[1] = tested on: immune system of healthy rats; experiment: Immune indicators of SD rats after one month of administration (Example 4); assay type: in vivo, rat; conditions: once a day for 4 weeks, end of administration
Procedure: SD rats were used to investigate the effects of the SE-DR affinity peptides on the immune indicators of the rats after continuous administration for one month. […] At the end of administration, analysis was conducted on the serum anti-FNS007 antibodies, different types of serum immunoglobulins, the serum complement, the peripheral blood T lymphocyte and the serum cytokines.

[2] = tested on: CIA rats with latent tuberculosis infection
[3] = tested on: CIA rats; assay type: in vivo, rat
Description: Female Lewis rats were used to establish CIA model. Methods: The rats were immunized by intradermal injection with the emulsion prepared by bovine C II and IFA at the tail head. After 7 days, the rats were boosted once with the same method. Thereafter, the morphological changes of the four paws of the rats were examined every day. […] Another 8 female Lewis rats were not subjected to model establishment and set as the control group. PBS was administrated to both the model group and the control group. […] The inflammation scores of the four paws of the rats in each group were evaluated during the administration (once every other day), and the area under the curve (AUC) of the inflammation score was calculated during the administration. During drug discontinuation, the inflammation scores of the four paws of the rats in each group were continuously evaluated (once every other day), and the rats were sacrificed on day 22 after drug discontinuation. HE staining was performed on the ankle joint for tissue injury evaluation. The specific scoring criteria were as follows: 0=normal synovial tissue; 1=synovial hyperplasia and inflammatory cell infiltration; 2=pannus formation and cartilage erosion; 3=destruction of most of the cartilage with subchondral bone erosion; 4=loss of joint integrity, ankylosis.

[4] = tested on: CIA mice infected with chronic hepatitis B; experiment: CIA mice infected with chronic hepatitis B (Example 8); assay type: in vivo, mouse
Summary of the method: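 DBA/1 mice given rAAV8-1.3HBV (1×10^12 vg/mL) i.v.; 2 days later immunised intradermally with bovine CII/CFA (100 μg collagen), boosted i.p. at day 21 with CII/IFA. Randomised at paw score 1; drugs i.v. every other day for 27 days. Paw inflammation scores, serum viral and liver-function markers measured.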

[5] = tested on: CIA mice; assay type: in vivo, mouse
Procedure: Male DBA/1 mice were used to establish CIA model. Methods: Mice were immunized by intradermally injecting an emulsion of bovine C II and CFA (containing 100 μg collagen) at the tail head. After 21 days, the mice were boosted once by intraperitoneally injecting an emulsion of bovine C II and IFA (containing 100 μg collagen). […] Another 10 female DBA/1 mice were not subjected to model establishment and set as the control group. PBS was administrated to both the model group and the control group. Corresponding drugs were administrated to the mice in each group by tail vein injection at the volume of 10 mL/kg, once every other day, for 28 consecutive days, followed by a recovery period of 28 days. The inflammation score of the four paws of the mice in each group was evaluated during the administration (once every other day), and the area under the curve (AUC) of the inflammation score was calculated during the administration. During drug discontinuation, the inflammation scores of the four paws of the […] in each group were continuously evaluated (once every other day), and the rats were sacrificed on day 28 after drug discontinuation. HE staining was performed on the ankle joint for tissue injury evaluation. The specific scoring criteria were as follows: 0=normal synovial tissue; 1=synovial hyperplasia and inflammatory cell infiltration; 2=pannus formation and cartilage erosion; 3=destruction of most of the cartilage with subchondral bone erosion; 4=loss of joint integrity, ankylosis.

[6] = tested on: immune system of healthy monkeys; experiment: Immune indicators of cynomolgus monkeys after one month of administration (Example 5); assay type: in vivo, cynomolgus monkey; conditions: once a day for 4 weeks, end of administration
Description: Cynomolgus monkeys were used to investigate the effects of the SE-DR affinity peptide on the immune indicators of cynomolgus monkeys after continuous administration for one month. […] At the end of administration, the immune indicators, including the serum anti-FNS007 antibodies, the immunoglobulins of different serotypes, the serum complement, the peripheral blood T lymphocyte and the serum cytokines, were observed.

[7] = HE staining of ankle joint, score 0-4

With FKGEQAGAGE [APL2] the CD3% [1] was 37.4 ± 10.52%, the CD4% [1] was 19.77 ± 6.05% and the CD8% [1] was 17.29 ± 7.09%. The IFN-γ [1] was 2.47 ± 0.36 pg/mL, the IL-2 [1] was 3.69 ± 3.03 pg/mL and the IL-4 [1] was 1.96 ± 1.26 pg/mL. For the same sequence, the TNF-α [1] was 5.13 ± 1.83 pg/mL, the “Observation on the daily condition of rats” value ([2]; during administration) was “No abnormality” and the Tuberculosis recurrence rate ([2]; peptides 0.2 mmol, adalimumab 1 mg/kg, 21 days) was 0%. The “Inflammation score and area under the time curve (AUC)” value ([2]; peptides 0.2 mmol, adalimumab 1 mg/kg, tail i.v. once every other day for 21 days) was 48.03 ± 31.91, the “Culture of MTB from lungs and spleens of rats at sacrifice” value ([2]; sacrifice on day 22, peptides 0.2 mmol, adalimumab 1 mg/kg) was “Negative” and the “inflammation score during drug discontinuation compared with that at the time of drug discontinuation” value ([3]; 21 days of observation after stopping at day 21) was “could maintain the therapeutic effect”. For the same sequence, the “Pathological score during 21 days of drug discontinuation” value [3, 7] was 1.93 ± 0.58, the “AUC, during drug discontinuation (day 22-42)” value ([3]; inflammation score AUC after stopping administration at day 21) was 42.86 ± 31.21 and the “Incidence of infection in rats” value ([3]; rat, in vivo) was 0%. The “Observation on the daily state of rats” value ([3]; rat, in vivo) was “No”, the ALT level ([4]; at sacrifice, day 28) was 45.88 ± 19.74 U/L and the “Hepatitis B activation rate (Ratio of ALT > 100 U/L)” value ([4]; at sacrifice, day 28) was 0%. For the same sequence, the “Observation on the daily condition of mice” value ([4]; during administration) was “No abnormality”, the “Inflammation score and area under the time curve (AUC)” value ([4]; peptides 50 μmol, Abatacept 100 μg, tail i.v. once every other day for 27 days) was 89.86 ± 46.14 and the “inflammation score during drug discontinuation compared with that at the time of drug discontinuation” value ([5]; 28 days of observation after stopping at day 28) was “could maintain the therapeutic effect”. The “Pathological score during 28 days of drug discontinuation” value [5, 7] was 2.05 ± 0.87, the “AUC, during drug discontinuation (day 29-56)” value ([5]; inflammation score AUC after stopping administration at day 28) was 87.55 ± 40.08 and the “Incidence of infection in mice” value ([5]; mouse, in vivo) was 0%. For the same sequence, the “Observation on the daily state of mice” value ([5]; mouse, in vivo) was “No”, the CD3% [6] was 63.37 ± 16.35% and the CD4% [6] was 27.33 ± 6.66%. The CD8% [6] was 21.74 ± 4.37%, the IFN-γ [6] was 5.09 ± 0.52 pg/mL and the IL-2 [6] was 4.62 ± 0.86 pg/mL. The IL-4 [6] was 2.12 ± 0.42 pg/mL and the TNF-α [6] was 2.42 ± 0.51 pg/mL.

Reference: patent US20250074946A1, “USE OF SE-DR AFFINITY PEPTIDE IN PREPARING DRUG FOR TREATING RHEUMATIC DISEASE” (HEBEI FITNESS BIOTECHNOLOGY CO., LTD., priority 2021, published 2025)
